The values that follow come from publication PMC12583827, “Harnessing microbial-derived metabolites in the urinary tract to prevent infection induced catheter encrustation” (Nature Communications, 2025).

Counter-ions that a name gives are not always drawn. Where a SMILES comes first, the peptide text is derived from it. A value given as a limit tells only on which side of the number the result lay.

T4 sequence (P17086 whole entry): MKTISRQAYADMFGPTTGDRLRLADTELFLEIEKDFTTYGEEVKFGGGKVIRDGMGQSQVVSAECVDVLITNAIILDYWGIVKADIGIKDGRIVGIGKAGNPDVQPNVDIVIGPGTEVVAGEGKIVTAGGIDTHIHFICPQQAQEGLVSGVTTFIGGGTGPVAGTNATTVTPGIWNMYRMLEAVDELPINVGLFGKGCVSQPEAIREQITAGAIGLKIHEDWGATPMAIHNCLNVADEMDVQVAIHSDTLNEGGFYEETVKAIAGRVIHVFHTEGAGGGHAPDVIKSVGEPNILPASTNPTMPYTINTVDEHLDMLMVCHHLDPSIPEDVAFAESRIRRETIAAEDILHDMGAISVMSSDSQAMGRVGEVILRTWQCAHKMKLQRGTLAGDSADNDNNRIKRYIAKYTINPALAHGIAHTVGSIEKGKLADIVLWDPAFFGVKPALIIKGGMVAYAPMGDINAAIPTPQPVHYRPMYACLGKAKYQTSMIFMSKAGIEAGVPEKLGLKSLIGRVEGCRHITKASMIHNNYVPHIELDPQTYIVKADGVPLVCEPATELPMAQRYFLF
T4 sequence (P17088 whole entry, further chain): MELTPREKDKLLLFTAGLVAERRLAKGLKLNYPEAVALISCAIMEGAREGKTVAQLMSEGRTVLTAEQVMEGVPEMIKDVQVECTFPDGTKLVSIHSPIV
T4 sequence (P17087 whole entry, further chain): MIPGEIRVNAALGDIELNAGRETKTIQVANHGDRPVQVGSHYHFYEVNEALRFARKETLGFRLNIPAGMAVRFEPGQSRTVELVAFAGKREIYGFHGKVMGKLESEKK
T2 sequence (P17088 whole entry): as the sequence (P17088 whole entry, further chain) above
T2 sequence (P17086 whole entry): as the sequence (P17086 whole entry) above
T2 sequence (P17087 whole entry, further chain): as the sequence (P17087 whole entry, further chain) above

The target in the first test is T1, P. mirabilis urease (Proteus mirabilis, UniProt P17086).
T1 construct: it utilizes whole bacterial cells, rather than isolated enzyme preparations; endogenous in cells; host or cells: Proteus mirabilis HI4320, live whole cells
T1 sequence (P17086 whole entry): as the sequence (P17086 whole entry) above
T1 sequence (P17088 whole entry, further chain): as the sequence (P17088 whole entry, further chain) above
T1 sequence (P17087 whole entry, further chain): as the sequence (P17087 whole entry, further chain) above
It counts as cell-based. The note with it: biosynthetic pathway/functional group screen; highest concentration tested 5mM.
As to `O=C(O)C(=O)Cc1cnc[nH]1` [Imidazole pyruvate, Imidazole pyruvic acid hydrobromide hydrate], the Dampens urease activity result is given as “No”.

The test is the same for the next values; noted with them: biosynthetic pathway/functional group screen; highest concentration tested 20mM.
On to `CC(=O)O` [Acetic acid, Acetic Acid, Glacial], for which the Dampens urease activity entry is “No”. On to `NCC(=O)O` [Glycine], for which the Dampens urease activity entry is “No”. As to `N[C@@H](Cc1c[nH]cn1)C(=O)O` [L-Histidine], the Dampens urease activity entry is on record as “No”. As for `O=C(O)C(O)Cc1ccccc1` (racemic) [Phenyllactate, (+/-)-3-Phenyllactic acid], the Dampens urease activity entry is recorded as “No”. Turning to `C[C@H](O)C(=O)O` [L-Lactic acid, L-(+)-Lactic acid], the Dampens urease activity entry is on record as “No”.

Still in this test, the particulars now being: highest concentration tested 400uM.
On to `O=c1[nH]c(=O)c2nc[nH]c2[nH]1` [xanthine, Xanthine], for which the Urease dampening activity result was “No”.

The same test, now with this note: highest concentration tested 2.5mM.
On to `N[C@@H](Cc1ccc(O)cc1)C(=O)O` [tyrosine, L-Tyrosine disodium salt dihydrate], for which the Urease dampening activity entry was “No”.

The same test, now with this note: highest concentration tested 10mM in 20%DMSO.
As for `O=C(O)C(=O)c1c[nH]c2ccccc12` [3-indoleglyoxylic acid], the Urease dampening activity result is listed as “No”. On the same count and under the same terms, in the case of `O=Cc1c[nH]c2ccccc12` [3-formylindole, Indole-3-carboxyaldehyde] it was “No”.

Staying with this test, now noted: highest concentration tested 15mM in 10% ethanol.
`O=C(O)C(=O)Cc1ccc(O)cc1` [4-hydroxyphenylpyruvate, 4-Hydroxyphenylpyruvic acid]: the Urease dampening activity entry is “No”.

The same test, now with this note: potassium phosphate buffer, dose response.
`CC(C)C[C@H](N)C(=O)NCC(=O)O` [leucylglycine, L-Leucylglycine hydrate] (H-Leu-Gly-OH): the “effect on P. mirabilis urease activity (whole cell)” value is on record as “reproducibly decreased”. Same read-out and setting: then `O=C(O)[C@@H](O)Cc1cnc[nH]1` [imidazole lactate], with “reproducibly decreased”.

Still in this test, the particulars now being: screen of candidate metabolites; highest concentration tested 20mM; * Trending but not statistically significant.
For the molecule `N=C(N)NCCC[C@H](N)C(=O)O` [L-Arginine], the Urease dampening activity entry is “No”.

In the case of `CC(=O)NCCCCN.Cl` [N-acetylputrescine, N-Acetylputrescine Hydrochloride], the Urease dampening activity result is reported as “No”. On the same count and under the same terms, in the case of `N[C@@H](Cc1ccccc1)C(=O)O` [phenylalanine, L-phenylalanine] it was “No”. Consider `NCCCCCN` [cadaverine, Cadaverine], for which the Urease dampening activity entry is “No”. For `CC(C)C[C@H](N)C(=O)NCC(=O)O` [leucylglycine, L-Leucylglycine hydrate] (H-Leu-Gly-OH), the Urease dampening activity entry was “Yes”. Still for that read-out and setting: in the case of `NCCc1c[nH]cn1` [Histamine free base] it was “Yes*”. Still for that read-out and setting: then `OC[C@H]1O[C@@](CO)(O[C@H]2O[C@H](CO)[C@@H](O)[C@H](O)[C@H]2O)[C@@H](O)[C@@H]1O` [sucrose, Sucrose], with “No”. Same read-out and setting: in the case of `NC(N)=NCCC[C@@H](N)C(=O)O` [D-Arginine] it was “No”; in that of `Nc1ccn([C@@H]2O[C@H](CO)[C@@H](O)[C@H]2O)c(=O)n1` [cytidine, Cytidine], “No”; in that of `NC(N)=NCCCC[C@H](N)C(=O)O` [homoarginine, H-HoArg-OH], “No”. As to `NCCCCN` [putrescine, Putrescine Dihydrochloride], the Urease dampening activity entry was “No”. Same read-out and setting: in the case of `CCC(C)C(=O)C(=O)[O-].[Na+]` (racemic) [3-methyl-2-oxovalerate, (±)-3-Methyl-2-oxovaleric acid sodium salt] it was “No”; in that of `CC(=O)NCCCCCN` [N-(5-Aminopentyl)acetamide], “No”; in that of `NCCc1ccccc1` [phenethylamine, 2-Phenylethylamine], “No”. Still for that read-out and setting: then `Cl.Cl.NCCCCCN` [Cadaverine dihydrochloride], with “No”; and `O=C([O-])CCC(O)C(=O)[O-].[Na+].[Na+]` (racemic) [2-hydroxyglutarate, DL-α-Hydroxyglutaric acid disodium salt], with “No”.

As to `Nc1ncnc2c1ncn2C1OC(COP(=O)(O)O)C(O)C1O` (centres unmarked) [adenosine 5'-monophosphate (AMP), AMP sodium salt hydrate], the Urease dampening activity entry is “No”. On to `NC(COP(=O)(O)O)C(=O)O` (racemic) [Ophospho-D,L-serine], for which the Urease dampening activity result is reported as “No”. Turning to `N[C@@H](COP(=O)(O)O)C(=O)O` [Ophospho-L-serine], the Urease dampening activity result was “No”. Still for that read-out and setting: in the case of `CC[C@H](C)[C@H](NC(C)=O)C(=O)O` [N-acetylisoleucine, N-acetyl-L-isoleucine] it was “No”; in that of `O=C([O-])[C@H](O)[C@@H](O)[C@H](O)[C@H](O)CO.[Na+]` [gluconate, Gluconic acid Sodium Salt], “No”. The same measure, in the same setting: in the case of `Nc1ncnc2c1ncn2[C@@H]1O[C@@H]2COP(=O)(O)O[C@H]2[C@H]1O` [adenosine 3',5'-cyclic monophosphate (cAMP)] it was “No”. Take `CC(C)CC(=O)C(=O)O` [4-methyl-2-oxopentanoate, 4-Methyl-2-oxovaleric acid]: the Urease dampening activity result is “No”.

As for `O=C1N[C@@H](Cc2ccc(O)cc2)C(=O)N2CCC[C@@H]12` [cyclo(pro-tyr), Cyclo(-Pro-Tyr)], the Urease dampening activity result is listed as “No”. The same measure, in the same setting: then `O=C1NC(Cc2ccccc2)C(=O)N2CCCC12` (centres unmarked) [cyclo(phe-pro), Cyclo(Phe-Pro)], with “No”.

A further test concerns the target T2, urease of P. mirabilis HI4320 cell free extracts (Proteus mirabilis, UniProt P17086).
T2 construct: 20ul of cell-free extract were distributed into a 96-well plate in place of the whole cell bacterial suspensions; endogenous in cells; host or cells: Proteus mirabilis HI4320, urea-induced; freeze-thaw and sonication lysate, clarified supernatant
Format: biochemical.
Details: not given
How it is done:
To measure urease activity of the cell free extracts of P. mirabilis, P. mirabilis was cultured for ~18 h in LB broth and then sub cultured until it reached mid-log growth phase (OD600 0.2-0.5). Cultures were spun down to pellet at 10,000 rcf for 10 minutes and resuspended in saline to a final OD600 of 1.0. Cultures were then diluted 1:10 in potassium phosphate buffer pH7 supplemented with 500 mM urea and incubated at 37 °C with shaking for 1 h to induce its urease enzyme production. The isogenic urease mutant Pm ureF::kan (Supplementary Data 1) served as negative control. Cultures then were spun down to pellet at 10,000 rcf for 10 minutes and resuspended in 2 mL saline. Cultures were subjected to four cycles of freezing in liquid nitrogen and thawing in a 37 °C water bath. Cultures were then probe sonicated (on ice) at 25% amplitude for 10 sec. Sonicated cultures were centrifuged at 18,900 Xg for 5 min and supernatants were transferred to a clean tube and stored on ice. To measure urease activity of cell free extracts, the previously described assay was modified such that 20ul of cell-free extract were distributed into a 96-well plate in place of the whole cell bacterial suspensions. Acetohydroxamic acid (AHA), was used as a positive control. Percent of maximum urease activity was calculated using Area Under the Curve (AUC) relative to untreated cell free extracts of P. mirabilis.
For the molecule `CC(C)C[C@H](N)C(=O)NCC(=O)O` [leucylglycine, L-Leucylglycine hydrate] (H-Leu-Gly-OH), the “urease activity of cell free P. mirabilis extracts” value was “at least partially inhibiting”.

For a further test, the target named is T3, Jack Bean Urease (JBU) (Canavalia ensiformis, UniProt P07374).
T3 construct: purchased Sigma-Aldrich
T3 sequence (P07374 whole entry, looked up): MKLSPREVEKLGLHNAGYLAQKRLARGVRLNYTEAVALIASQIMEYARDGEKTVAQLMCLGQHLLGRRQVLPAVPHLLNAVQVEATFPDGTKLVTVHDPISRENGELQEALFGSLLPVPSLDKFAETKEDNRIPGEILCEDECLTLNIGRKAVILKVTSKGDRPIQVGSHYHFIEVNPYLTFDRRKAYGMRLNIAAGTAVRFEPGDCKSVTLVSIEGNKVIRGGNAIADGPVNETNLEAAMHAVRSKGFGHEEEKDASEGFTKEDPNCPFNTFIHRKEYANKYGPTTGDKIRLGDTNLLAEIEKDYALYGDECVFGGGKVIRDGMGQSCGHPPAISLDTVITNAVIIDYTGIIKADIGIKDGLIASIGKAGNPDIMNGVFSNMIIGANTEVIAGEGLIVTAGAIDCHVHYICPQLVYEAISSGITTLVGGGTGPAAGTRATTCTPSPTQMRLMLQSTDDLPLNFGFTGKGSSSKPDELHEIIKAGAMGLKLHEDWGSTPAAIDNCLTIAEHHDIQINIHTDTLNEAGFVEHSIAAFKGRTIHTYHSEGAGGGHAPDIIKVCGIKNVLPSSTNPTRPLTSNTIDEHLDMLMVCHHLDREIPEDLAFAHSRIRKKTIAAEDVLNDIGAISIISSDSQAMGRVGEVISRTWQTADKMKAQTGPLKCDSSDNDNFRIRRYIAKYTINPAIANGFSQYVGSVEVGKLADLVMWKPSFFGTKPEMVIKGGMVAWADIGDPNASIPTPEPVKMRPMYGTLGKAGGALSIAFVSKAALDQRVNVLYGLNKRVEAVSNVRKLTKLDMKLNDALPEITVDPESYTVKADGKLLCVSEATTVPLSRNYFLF
Format: biochemical. The note with it: 0.1 U JBU, 500 mM urea. As to the method:
To measure Jack Bean urease activity, the previously described assay was modified such that 0.1 U (1U liberates 1 µmol of ammonia from urea per minute) of JBU (Sigma-Aldrich urease from Canavalia ensiformis) were distributed into a 96-well plate in place of the bacterial suspensions. Acetohydroxamic acid (AHA), was used as a positive control and a vehicle control was used as a negative control. Percent of maximum urease activity was calculated using Area Under the Curve (AUC) relative to untreated bacteria of interest or untreated JBU. Urease activity measurement in MRSA was adapted from a recently published semi quantitative assay (See Supplementary materials for details)[48].
414 Supplementary Figure 13. Microbial metabolites dampen activity of purified Jack Bean
415 Urease (JBU). 0.1 U of JBU (1U liberates 1 µmol of ammonia from urea per minute) was
416 incubated at 37 °C with shaking in urease-dampening metabolites, 500mM urea, and phenol red.
417 A urea analogue, AHA, served as the positive control for inhibition of JBU. Absorbance
418 (OD562) was measured every 60 seconds for 90 minutes, and activity is expressed as percent of
419 maximum activity (% Max Activity) relative to untreated JBU. Graphs show mean±SD for 3
420 independent experiments with 3 technical replicates each. Data were analyzed by two tailed one
421 sample t-test to a hypothetical value of 100% activity. ***P<0.001, **P<0.002, *P<0.033.
(1 picture or pasted object on this page, not shown here)
Consider `CC(C)C[C@H](N)C(=O)NCC(=O)O` [leucylglycine, L-Leucylglycine hydrate] (H-Leu-Gly-OH), for which the JBU activity result was “inhibited”.

Another test has as its target T4, urease of P. mirabilis cell free extracts (Proteus mirabilis, UniProt P17086).
T4 construct: 20ul of cell-free extract were distributed into a 96-well plate in place of the whole cell bacterial suspensions; endogenous in cells; host or cells: Proteus mirabilis HI4320, urea-induced; freeze-thaw and sonication lysate, clarified supernatant
Format: biochemical.
Details: not given
As to the method: For the kinetic analysis of the urease reaction in the presence of urease dampening metabolites, urease activity assays were repeated with the P. mirabilis cell free extracts. Six different inhibitor concentrations that gave linear rates of reaction over a period of 120 min were tested for their effects on urease activity in the presence of urea concentrations ranging from 0 to 500 mM. Simple linear regression was performed on the absorbance (OD562) over 120 minutes for each condition and plotted as Initial velocity (slope) vs urea concentration. These initial hyperbolic plots were converted to double-reciprocal Lineweaver-Burke plots, and the pattern of inhibition inferred from the point of intersection of the lines. Finally, the Ki for a particular compound was determined by plotting the Km/Vmax ratio (the slope of the Lineweaver-Burke plots) of each line as a function of the inhibitor concentration as described by ref. [49]. The X-intercept corresponded to –Ki.
Consider `CC(C)C[C@H](N)C(=O)NCC(=O)O` [leucylglycine, L-Leucylglycine hydrate] (H-Leu-Gly-OH), for which the “change of estimated Km on addition of metabolite” value is listed as “increase” and the “change of estimated Vmax on addition of metabolite” value is recorded as “decrease”.

Staying with this test, now noted: Michaelis-Menten parameters, Lineweaver-Burke plot.
Regarding `CC(C)C[C@H](N)C(=O)NCC(=O)O` [leucylglycine, L-Leucylglycine hydrate] (H-Leu-Gly-OH), the “type of urease inhibition” value is on record as “mixed inhibitors”.

A further test concerns the target T1, P. mirabilis urease. It counts as cell-based.
Details: not given
As to the method: To assess the synergistic effects of dampening metabolites when used in combination with each other, P. mirabilis urease activity was measured as described above. Between 4-6 different concentrations for each dampening metabolite were tested both alone and in combination (See Fig. 6a for example). […] To account for variability between experiments, all conditions tested were performed on a single 96-well plate with three technical replicates for each condition. To compare between biologic replicates, percent inhibition relative to untreated P. mirabilis was calculated for each condition using the average area under the curve over 120-180 minutes (so that the positive control activity curve saturated without any increase in the negative control curve).
Statistical analysis was conducted using a one sample T test of the combination index compared to a hypothetical value of 1 (additive effect). […] Therefore, combination indexes were calculated using a desired effect size less than 40% were indicated with an * in Fig. 6b and in Supplementary Data 5.
`CC(C)C[C@H](N)C(=O)NCC(=O)O` [leucylglycine, L-Leucylglycine hydrate] (H-Leu-Gly-OH): the “concentrations required to achieve a significant combination index” value is recorded as over 50 mM.
